Test results published in article PMC9753400, “Conformational alteration in glycan induces phospholipase Cβ1 activation and angiogenesis” (Journal of Biomedical Science, 2022).

Key:
[1] = target: T1, TRAX (translin-associated factor X) (Homo sapiens, UniProt Q99598); experiment: SPR (Biacore X), TRAX amine-coupled to CM5 chip; type: binding; settings: HBS-P running buffer, GSL diluted from methanol stock
T1 construct: gene TSNAX; full-length, cDNA from HUVEC mRNA, pET-21d, nine-histidine tag (text says N-terminal; His codons printed in the R'-primer), expressed in E. coli BL21 (DE3), HisTrap / DEAE / SP-Sepharose; immobilised on CM5 chip
T1 sequence (Q99598 1-290): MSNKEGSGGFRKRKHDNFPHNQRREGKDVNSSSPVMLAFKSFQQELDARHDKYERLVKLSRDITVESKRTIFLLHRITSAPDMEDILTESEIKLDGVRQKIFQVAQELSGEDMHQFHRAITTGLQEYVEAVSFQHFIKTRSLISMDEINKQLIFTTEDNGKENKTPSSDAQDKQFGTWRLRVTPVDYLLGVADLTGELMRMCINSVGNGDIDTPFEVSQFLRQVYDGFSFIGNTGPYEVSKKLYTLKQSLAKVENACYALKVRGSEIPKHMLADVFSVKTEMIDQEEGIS

[2] = target: T2, recombinant human full-length translin-associated factor X (TRAX) (human, UniProt Q99598 1-290); experiment: SPR; Biacore X; TRAX amine-coupled to CM5 chip (about 2500 RU), PLCβ1-C flowed over, HBS-P running buffer; competition runs with PLCβ1-C 360 nM plus 0, 1 or 9 μM GHCer; settings: both partners purified
T2 construct: translin-associated factor X (TRAX), human, full length, cDNA from HUVECs, in pET-21d; Removal of the tag is not mentioned; also called recombinant TRAX; wild-type TRAX; source: E. coli BL21 (DE3) pLys, purified (HisTrap FF, DEAE-Sepharose, SP-Sepharose)
T2 sequence (looked up): T1 sequence (Q99598 1-290)

A Kd ([1]; competes with PLCβ1 C-terminal domain) of 0.0409 µM was found for “Fucα1 → 2Galβ1 → 3GalNAcβ1 → 3Galα1 → 4Galβ1 → 4Glcβ1-ceramide [GHCer]” in this work.

A Kd ([1]; tested at 10 μM) of over 10 µM was found for “Galβ1 → 3GalNAcβ1 → 3Galα1 → 4Galβ1 → 4Glcβ1-ceramide [SSEA3Cer]” in this work.

B1: recombinant C-terminal domain of PLCβ1 (PLCβ1-C), amino acids 890 to 1161 (domain or fragment, human, UniProt Q9NQ66 890-1161, looked up)
chain: APAKTEDLIQSVLTEVEAQTIEELKQQKSFVKLQKKHYKEMKDLVKRHHKKTTDLIKEHTTKYNEIQNDYLRRRAALEKSAKKDSKKKSEPSSPDHGSSTIEQDLAALDAEMTQKLIDLKDKQQQQLLNLRQEQYYSEKYQKREHIKLLIQKLTDVAEECQNNQLKKLKEICEKEKKELKKKMDKKRQEKITEAKSKDKSQMEEEKTEMIRSYIQEVVQYIKRLEEAQSKRQEKLVEKHKEIRQQILDEKPKLQVELEQEYQDKFKRLPLEI
notes: phospholipase C β1 (PLCβ1), human, C-terminal domain, residues 890-1161, cDNA from HUVECs, in pET-21d; Removal of the tag is not mentioned; also called recombinant C-terminus of PLCβ1; source: E. coli BL21 (DE3) pLys, purified (HisTrap FF, DEAE-Sepharose, SP-Sepharose)
A Kd [2] of about 7.5 µM was found for B1 in this work.
